Patent US9814754B2, “Combinations with a backbone-cyclized peptide” (POLYPHOR AG, priority 2012, dated 2017)
Square brackets hold non-standard residues; d marks the D form. dDab = NCC[C@@H](N)C(=O)O; Orn = NCCC[C@H](N)C(=O)O; Dab = NCC[C@H](N)C(=O)O

What was measured:
Assay type in all cases: in vivo
[1] = system: Pseudomonas aeruginosa clinical isolate PAX11045; assay: Murine pneumonia model, compound 1 alone (Reference 1)
Method: Efficacy in Murine Pneumonia Model Against Pseudomonas aeruginosa PAX11045 and Estimation of ED50
The efficacy and ED50 of the compound of formula (I) (“compound 1”) was determined against Pseudomonas aeruginosa clinical isolate PAX11045 in a pneumonia model in mice. Colony counts in the lungs and spleen were determined at 20 hours post treatment.
(§1) Fresh overnight colonies of PAX11045 from a 5% Horse Blood Agar plate were suspended in 0.9% sterile saline to approximately 10^8 CFU/ml and further diluted to approximately 5×10^7 CFU/ml. Female mice (DBA/2, outbred, 18-22 g, Charles River) were anesthetized with 0.08 ml of Zoletil (tiletamine+zolazepam) and inoculated via the nose with a pipette with 0.05 ml of the bacteria suspension containing approximately 10^6 CFU. 4 hours after inoculation, the mice were treated orally with 45 μl neurophen (20 mg ibuprofen/ml corresponding to approximately 30 mg/kg) as pain relief.
One vial was further 2-fold diluted with saline to 2.25, 1.125, 0.56 and 0.28 mg/ml. The mice were treated subcutaneously with 0.2 ml in the neck region with a single dose at 4 hours post infection with a dose calculation based on a mean animal weight of 20 g.
(§2) Colony counts were determined post inoculation at 4 hours (untreated mice) and 24 hours (treated and vehicle-only treated mice). Immediately after the mice were sacrificed, the lungs and spleens were collected and frozen at −20° C. After thawing, the organs were homogenized in 1 ml 0.9% saline. Each sample was then 10-fold diluted in saline and 20 μl spots were applied on blood agar plates. All agar plates were incubated 18-48 hours at 35° C. in ambient air.

[2] = system: Pseudomonas aeruginosa clinical isolate PAX11045; assay: Murine pneumonia model, compound 1 in combination with ertapenem (Example 1)
Method: The efficacy and ED50 of the compound of formula (I) (“compound 1”) in combination with ertapenem was determined against Pseudomonas aeruginosa clinical isolate PAX11045 in a pneumonia model in mice. Colony counts in lung were determined at 20 hours post treatment.
as §1, with “0.1” for “0.08”, “Zoletil” for “Zoletil (tiletamine+zolazepam)”
1 g of ertapenem (Invanz™, MSD Denmark Aps) was dissolved in 10 ml 0.9% sterile saline to a concentration of 100 mg/ml and further diluted with saline to 5 mg/ml. The mice were treated subcutaneously with 0.2 ml in the neck region with a single dose at 3 hours post infection corresponding to 50 mg/kg on the basis of a mean animal weight of 20 g.
The mice were treated subcutaneously with 0.2 ml in the neck region with a single dose at 4 hours post infection with a dose calculation based on a mean animal weight of 20 g.
as §2, with “lungs” for “lungs and spleens”, “10 fold” for “10-fold”, “18-24” for “18-48”
The CFU/ml in the inoculum was determined to 7.65 log10 CFU/ml corresponding to 6.35 log10 CFU/mouse.
At 4 hours after infection the mean log10 CFU/lung was 5.14 and the CFU level remained at a similar level after 24 hours in the vehicle-only group.

[3] = system: Pseudomonas aeruginosa clinical isolate PA18298; assay: Murine pneumonia model, compound 1 alone (Reference 3)
Method: Efficacy in Murine Pneumonia Model Against Pseudomonas aeruginosa PA18298 and Estimation of ED50
The efficacy and ED50 of the compound of formula (I) (“compound 1”) was determined against Pseudomonas aeruginosa clinical isolate PA18298 in a pneumonia model in mice. Colony counts in the lungs were determined at 18-20 hours post treatment.
as §1, with “PA18298” for “PAX11045”, “4×10^7” for “5×10^7”, “0.1” for “0.08”, “1×10^6” for “10^6”
One vial containing 10 mg of active compound 1 was dissolved in 2 ml 0.9% sterile saline to a concentration of 5 mg/ml and was further diluted with saline to 2, 1, 0.75, 0.55, 0.275 and 0.137 mg/ml. The mice were treated subcutaneously with 0.2 ml in the neck region with a single dose at 4 hours post infection with a dose calculation based on a mean animal weight of 20 g. As positive control colistin was used in the same manner with a fixed dose of 20 mg/kg.
as §2, with “lungs” for “lungs and spleens”
The CFU/ml in the inoculum was determined to 7.49 log10 CFU/ml corresponding to 6.20 log10 CFU/mouse.
At 4 hours after infection the mean log10 CFU/lung was 5.05 and the CFU level declined to 2.62 at 24 hours post inoculation in the vehicle-only group.

[4] = compound 1 alone, s.c. single dose 4 h post infection, murine lungs
[5] = compound 1 alone, s.c., murine lungs
[6] = compound 1 alone, s.c., murine lungs, sigmoidal dose-response model (variable slope)
[7] = in presence of 50 mg/kg ertapenem, murine lungs

cyclo(TWI[Dab][Orn][dDab][Dab]W[Dab][Dab]AS[dP]P) [compound 1]
Bottom level [1, 4]: −2.2 log10 CFU/ml | Top level ([1]; compound 1 alone, s.c. single dose 4 h post infection, murine lungs, sigmoidal dose-response model): 1.3 log10 CFU/ml | 1 log killing dose [1, 5]: 8.1 mg/kg | 2 log killing dose [1, 5]: 20 mg/kg | Emax [1, 5]: 3.5 log10 CFU/ml | Static dose [1, 5]: 1.55 mg/kg | ED50 [1, 6]: 4.33 mg/kg | CFU levels compared to vehicle treatment ([1]; compound 1 s.c. dose series, both organs (lungs and spleen), p<0.001 for the higher concentrations): concentration dependent significant reduction of the CFU levels | effect on bacterial loads ([2]; 2.75 mg/kg alone, lung, p<0.001): significant effect on reducing the bacterial loads | CFU levels compared to vehicle treatment ([2]; combination of compound 1 (dose series) and ertapenem 50 mg/kg, lung, p<0.01-p<0.001): concentration dependent significant reduction of the CFU levels | Top level ([2]; compound 1 s.c. in presence of 50 mg/kg ertapenem (s.c., 3 h post infection), murine lungs): −0.34 log10 CFU/ml | 1 log killing dose [2, 7]: 1.14 mg/kg | 2 log killing dose [2, 7]: 1.48 mg/kg | Bottom level [2, 7]: −2.32 log10 CFU/ml | Emax [2, 7]: 1.98 log10 CFU/ml | Static dose [2, 7]: 0.63 mg/kg | ED50 ([2]; in presence of fixed dose of 50 mg/kg ertapenem, murine lungs): 1.24 mg/kg | CFU levels compared to vehicle treatment ([3]; 11-20 mg/kg, lungs, p<0.01-p<0.001): significant reduction of the CFU levels | Top level [3, 4]: −3.60 log10 CFU/ml | Bottom level [3, 5]: −2.48 log10 CFU/ml | Emax [3, 5]: 1.12 log10 CFU/ml | Static dose [3, 5]: 9.15 mg/kg | ED50 [3, 6]: 26.6 mg/kg
